Laboratory results: patent US8492374B2, “Azaazulene compounds” (Industrial Technology Research Institute, priority 2009, dated 2013)

Key:
[1] = test system: MV4-11 (FLT3-ITD) cell line; assay: In vitro cell activity assay (MTT cell viability, 72 hours); format: cell-based; details: Homo sapiens, 72 hours at 37° C., 10,000 cells per well, read-out: IC50 against MV4-11
Experimental: Human MV4-11 (FLT3-ITD) cell line was obtained from American Tissue Culture Collection (ATCC number: CRL-9591). The cell line was cultured with RPMI 1640 containing 10% fetal bovine serum, 1 mmol/L sodium pyruvate and 10 mmol/L HEPES (pH 7.4). The cell was grown and maintained in a humidified atmosphere at 37° C. and 5% carbon dioxide.
MV4-11 cell was plated in 96-well microtiter plates (10,000 cells per well) and serial dilutions of indicated compounds were added. At the end of the incubation period (72 hours at 37° C.), cell viability was determined by a tetrazolium dye, MTT (3-(4,5-dimethylthiazol-2-yl)-2,5-diphenyl tetrazolium bromide) (Promega, Madison, Wis.). The formazan crystals were dissolved by DMSO, and the absorbance at a wavelength of 600 nm was recorded using an ELISA plate reader. IC50 values were calculated using nonlinear regression and defined as the concentration needed for a 50% reduction in absorbance of treated versus untreated control cells.

FLT-3 kinase = molecular target: T1, FLT-3 kinase (Homo sapiens, UniProt P36888); assay: FLT-3 kinase DELFIA assay (HTScan FLT-3 Kinase Assay Kit); format: biochemical; details: 20 uM ATP; for inhibition at 0.1 µM: 0.1 uM compound; for inhibition at 1 µM: 1 uM compound
T1 construct: human FLT-3 (Arg571-Ser993); GST (N); purchased Cell Signaling Technology HTScan FLT-3 Kinase Assay Kit; host or cells: baculovirus expression system
T1 sequence (P36888 571-993): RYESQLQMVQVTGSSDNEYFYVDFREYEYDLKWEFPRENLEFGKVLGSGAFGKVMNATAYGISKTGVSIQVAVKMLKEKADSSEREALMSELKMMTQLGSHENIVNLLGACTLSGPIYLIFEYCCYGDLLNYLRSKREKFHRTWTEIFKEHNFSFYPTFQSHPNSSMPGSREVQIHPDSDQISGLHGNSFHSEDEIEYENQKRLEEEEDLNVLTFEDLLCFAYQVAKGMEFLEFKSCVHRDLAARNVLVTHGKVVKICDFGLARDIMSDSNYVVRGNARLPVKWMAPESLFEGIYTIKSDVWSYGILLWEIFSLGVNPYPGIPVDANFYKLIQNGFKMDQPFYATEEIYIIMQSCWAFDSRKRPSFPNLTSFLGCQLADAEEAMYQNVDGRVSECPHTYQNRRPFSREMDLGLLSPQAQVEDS
Experimental: Azaazulene Compounds of this invention were treated for their efficacy in inhibiting activities of FLT-3, c-KIT and KDR kinases by biochemical DELFIA (Dissociation Enhanced Lanthanide FIA) assays according to the procedure described below. The assays were conducted by, Division of Cell Engineering, Biomedical Engineering Research Laboratories, Industrial Technology Research Institute, Bldg. 53, 195, sec. 4, Chung Hsing Rd. Chutung, Hsinchu, Taiwan 310, R.O.C.
The FLT-3 assay was conducted following the protocol described in Protocol for HTScang FLT-3 Kinase Assay Kit (Cell Signaling Technology®).

Row | IC50 [1] [nM] | inhibition at 0.1 µM (FLT-3 kinase) [%] | inhibition at 1 µM (FLT-3 kinase) [%] | SMILES
1 | 1000 to 5000 |  |  | O=c1[nH]c2cccccc-2c1-c1nc2cc(F)c(F)cc2[nH]1 [Compound B3]
2 | 1000 to 5000 | 8.9 | 20.3 | O=c1[nH]c2cccccc-2c1-c1nc2cc(Cl)cnc2[nH]1 [Compound B10]
3 | > 5000 | 4.5 | 1.6 | O=c1[nH]c2cccccc-2c1-c1cn2cccnc2n1 [Compound B12]
4 | > 5000 | 4.8 | 16.5 | O=c1[nH]c2cccccc-2c1-c1cn2ccc(Cl)cc2n1 [Compound B16]
5 | 1000 to 5000 | 4.9 | 23.4 | O=c1[nH]c2cccccc-2c1-c1cn2cc(Br)ccc2n1 [Compound B17]
6 |  | 16.4 | 40.2 | O=c1[nH]c2cccccc-2c1-c1nc2cc3ccccc3cc2[nH]1 [Compound B18]
7 | 1000 to 5000 | 14.7 | 28.6 | N#Cc1ccc2[nH]c(-c3c4cccccc-4[nH]c3=O)nc2c1 [Compound B19]
8 | 1000 to 5000 | 16.7 | 33.3 | CC(C)(C)OC(=O)Nc1ccc2[nH]c(-c3c4cccccc-4[nH]c3=O)nc2c1 [Compound B20]
9 | 42.9 | 29.1 | 83.9 | O=c1[nH]c2cccccc-2c1-c1nc2cc(N3CCNCC3)ccc2[nH]1 [Compound B22]
10 | 34.4 | 41.2 | 91.5 | O=c1[nH]c2cccccc-2c1-c1nc2cc(N3CCNCC3)ccc2n1CC(F)(F)F [Compound B23]
11 | 75 | 19.1 | 71.5 | CC1CN(c2ccc3[nH]c(-c4c5cccccc-5[nH]c4=O)nc3c2)CC(C)N1 (centres unmarked) [Compound B24]
12 | 375 |  |  | CN1CCN(c2ccc3[nH]c(-c4c5cccccc-5[nH]c4=O)nc3n2)CC1 [Compound B27]
13 | 96.3 |  |  | CCN1CCN(c2ccc3[nH]c(-c4c5cccccc-5[nH]c4=O)nc3c2)CC1 [Compound B28]
14 | 1000 to 5000 | 8 | 8.1 | CCN(CC)CCCCn1c2cccccc-2c(-c2nc3cc(N4CCN(C)CC4)ccc3[nH]2)c1=O [Compound B32]
15 | 54.2 | 58.7 | 96.6 | CN(C)CCCN1CCN(c2ccc3[nH]c(-c4c5cccccc-5[nH]c4=O)nc3c2)CC1 [Compound B33]
16 | 151 | 40.2 | 85.4 | CCCCN(CCCC)CCN1CCN(c2ccc3[nH]c(-c4c5cccccc-5[nH]c4=O)nc3c2)CC1 [Compound B34]
17 | 159 | 42 | 86.7 | CN1CCC(N2CCN(c3ccc4[nH]c(-c5c6cccccc-6[nH]c5=O)nc4c3)CC2)CC1 [Compound B35]
18 | 151 | 24.8 | 64 | O=c1[nH]c2cccccc-2c1-c1nc2cc(N3CCN(CCO)CC3)ccc2[nH]1 [Compound B36]
19 | 118 | 21.8 | 69.2 | O=c1[nH]c2cccccc-2c1-c1nc2cc(N3CCN(CCF)CC3)ccc2[nH]1 [Compound B38]
20 | 62.2 | 24.3 | 78.6 | O=c1[nH]c2cccccc-2c1-c1nc2cc(N3CCN(CCCF)CC3)ccc2[nH]1 [Compound B39]
21 | 72.3 | 38.2 | 88.1 | O=c1[nH]c2cccccc-2c1-c1nc2cc(N3CCN(C[C@@H](O)CO)CC3)ccc2[nH]1 [Compound B40]
22 | 1000 to 5000 | 33.5 | 67.2 | O=c1[nH]c2cccccc-2c1-c1nc2cc(N3CCN(Cc4ccc5ccccc5c4)CC3)ccc2[nH]1 [Compound B43]
23 | 190 | 29 | 79.1 | O=c1[nH]c2cccccc-2c1-c1nc2cc(N3CCN(Cc4ccccc4)CC3)ccc2[nH]1 [Compound B44]
24 | 318 | 27.3 | 77 | CN(C)c1ccc(CN2CCN(c3ccc4[nH]c(-c5c6cccccc-6[nH]c5=O)nc4c3)CC2)cc1 [Compound B45]

Row | IC50 [1] [nM] | inhibition at 0.1 µM (FLT-3 kinase) [%] | inhibition at 1 µM (FLT-3 kinase) [%] | SMILES
25 | 314 | 27.4 | 79.2 | O=c1[nH]c2cccccc-2c1-c1nc2cc(N3CCN(Cc4ccc(Br)o4)CC3)ccc2[nH]1 [Compound B46]
26 | 300 |  |  | O=c1[nH]c2cccccc-2c1-c1nc2cc(N3CCN(Cc4ccncc4)CC3)ccc2[nH]1 [Compound B47]
27 | 148 |  |  | O=c1[nH]c2cccccc-2c1-c1nc2cc(N3CCN(Cc4cccnc4)CC3)ccc2[nH]1 [Compound B48]
28 | 249 | 21.9 | 72.2 | O=c1[nH]c2cccccc-2c1-c1nc2cc(N3CCN(Cc4ccccn4)CC3)ccc2[nH]1 [Compound B49]
29 | 50.7 | 25.1 | 79.6 | CN1CCN(c2cc3nc(-c4c5cccccc-5[nH]c4=O)[nH]c3cc2F)CC1 [Compound B50]
30 | 99.1 | 20.6 | 66.6 | CN1CCN(c2ccc3[nH]c(-c4c5cccccc-5[nH]c4=O)nc3c2F)CC1 [Compound B51]
31 | 635 | 20.3 | 42.5 | CN1CCN(c2c(F)cc3[nH]c(-c4c5cccccc-5[nH]c4=O)nc3c2F)CC1 [Compound B52]
32 | 74 | 46 | 91.6 | O=CN1CCN(c2ccc3[nH]c(-c4c5cccccc-5[nH]c4=O)nc3c2)CC1 [Compound B54]
33 | 93.8 | 45.2 | 93.2 | O=C(Nc1ccccc1)N1CCN(c2ccc3[nH]c(-c4c5cccccc-5[nH]c4=O)nc3c2)CC1 [Compound B55]
34 | 104 | 29.5 | 81.5 | CS(=O)(=O)N1CCN(c2ccc3[nH]c(-c4c5cccccc-5[nH]c4=O)nc3c2)CC1 [Compound B57]
35 | 253 |  |  | CN1CCCN(c2c(F)cc3[nH]c(-c4c5cccccc-5[nH]c4=O)nc3c2F)CC1 [Compound B86]
36 |  | 42.5 | 92.9 | O=c1[nH]c2cccccc-2c1-c1nc2cc(N3CCC(O)CC3)ccc2[nH]1 [Compound B107]
37 |  | 36.5 | 84.9 | CN(C)[C@@H]1CCN(c2ccc3[nH]c(-c4c5cccccc-5[nH]c4=O)nc3c2)C1 [Compound B110]
38 |  | 36.3 | 62.7 | O=c1[nH]c2cccccc-2c1-c1nc2cc(-n3nccn3)ccc2[nH]1 [Compound B116]
39 | 100 to 500 |  |  | O=C(Nc1ccccc1)Nc1ccc2[nH]c(-c3c4cccccc-4[nH]c3=O)nc2c1 [Compound B121]
40 | > 5000 |  |  | O=C(Nc1ccc2[nH]c(-c3c4cccccc-4[nH]c3=O)nc2c1)Nc1c(Cl)cncc1Cl [Compound B122]
41 | 1000 to 5000 |  |  | CCc1cccc(C)c1NC(=O)Nc1ccc2[nH]c(-c3c4cccccc-4[nH]c3=O)nc2c1 [Compound B123]
42 | ~5000 |  |  | O=C(Nc1ccc2[nH]c(-c3c4cccccc-4[nH]c3=O)nc2c1)NC1CCCCC1 [Compound B124]
43 | 680 |  |  | O=C(Nc1ccc2[nH]c(-c3c4cccccc-4[nH]c3=O)nc2c1)Nc1ccccc1F [Compound B125]
44 | > 5000 |  |  | O=C(Nc1cccc(F)c1)Nc1ccc2[nH]c(-c3c4cccccc-4[nH]c3=O)nc2c1 [Compound B126]
45 | ~1000 |  |  | O=C(Nc1ccc(F)cc1)Nc1ccc2[nH]c(-c3c4cccccc-4[nH]c3=O)nc2c1 [Compound B127]
46 | 1000 to 5000 |  |  | O=C(Nc1ccc2[nH]c(-c3c4cccccc-4[nH]c3=O)nc2c1)Nc1ccc(F)cc1F [Compound B128]
47 | > 5000 |  |  | O=C(Nc1ccc2[nH]c(-c3c4cccccc-4[nH]c3=O)nc2c1)Nc1c(F)cccc1F [Compound B129]

Row | SMILES | IC50 [1] [nM] | inhibition at 0.1 µM (FLT-3 kinase) [%] | inhibition at 1 µM (FLT-3 kinase) [%]
48 | O=c1[nH]c2cccccc-2c1-c1nc2cc(N3CCN(S(=O)(=O)CCCl)CC3)ccc2[nH]1 [Compound B58] | 67.2 | 35.7 | 83.8
